Source: patent publication EP4772500A1, “NOVEL ISOXAZOLE COMPOUND AS TM4SF5-SPECIFIC INHIBITOR AND USE THEREOF” (Seoul National University R&DB Foundation, priority 2023, dated 2025)

What was measured:
[1] = test system: TM4SF5-non-expressing cells (SNU449Cp); experiment: 2D cell growth/proliferation, TM4SF5-non-expressing cells; assay type: cell-based, human; conditions: 2D environment (FIG. 3a)
Description: The drugs treated were the positive control drug TSAHC or the ST-1-025 isoxazole compound at the given concentrations. From the time of starting culture (0 day), (FIG. 3a) in the case of 2D culture, the number of cells was measured after treating with the drug every 24 hours, or (FIG. 3b) in a 3D environment, the proliferation of cells (spheres) was observed and photographed with an optical microscope on the 5th and 7th days after a single drug treatment at the start of culture.

SNU449-TM4SF5 cells = experiment: qRT-PCR of cytokines/chemokines, fibrosis and T/NK cell related factors; assay type: cell-based, human; conditions: 2.5 µM, 24 hours, SNU449-TM4SF5 (FIG. 8e-g)
Description: After disrupting cells or tissues using Qiazol (Qiagen, USA), chloroform was added thereto, and centrifugation was performed at 12,000x g and 4°C for 15 minutes for phase separation, followed by separating the upper […] layer. After adding isopropanol to the separated […] layer to precipitate RNA, it was washed with 70% ethanol. An RNA pellet was separated by centrifugation at 7,500x g for 5 minutes, and ethanol was evaporated for 10 minutes, followed by solubilization in 30 µl of DEPC-water. The solubilized RNA was reverse-transcribed using a reverse transcription kit (Toyobo, Japan) after removing gDNA to obtain cDNA. For the obtained cDNA, expression was measured by real-time PCR (Bio-Rad, USA) using 2x Eva green master mix (Labopass, Republic of Korea) and 0.4 µM forward/reverse primers. The expression level was calculated using Pfaffl's modified delta-delta Ct method.
Normal 22-week-old C57BL/6 mice were randomly divided into a normal chow diet (NCD) group and a Methionine-Choline Deficient (MCD) diet group, which is a non-alcoholic steatohepatitis (NASH) induction diet, with 3 to 6 mice per group, and were allowed free access to the diets for 4 weeks. Simultaneously, vehicle (DMSO) or ST-2-001 at a concentration of 5 mg/kg was treated twice a week per animal via intraperitoneal injection (IP). […]

[2] = test system: C57BL/6 mice on Methionine-Choline Deficient (MCD) diet; experiment: MCD diet non-alcoholic steatohepatitis (NASH) mouse model; assay type: in vivo
Excerpt: Wildtype (WT), Alb-TG^Tm4sf5-Flag, and Tm4sf5^-/- (Tm4sf5 gene-deficient) KO C57BL/6N mice were raised in a pathogen-free room animal facility where temperature and humidity were well controlled. For the experiment to establish the steatohepatitis NASH disease model, 22-week-old mice were used. For the induction of hepatic steatohepatitis through an MCD (TD.90262, Teklad) diet, 6-week-old male mice were randomly divided into normal chow diet (NCD, Purina, Cat # 38057) and MCD groups and allowed free access to the diet for 4 weeks (7 mice per group). When treating with drugs, intraperitoneal injection was performed at a concentration of 5 mg/kg twice a week. After the end of the experiment, liver tissues were obtained and analyzed through methods of H&E, immunohistochemistry tissue staining, Western blot, and qRT-PCR.
Normal 22-week-old C57BL/6 mice were randomly divided into a normal chow diet (NCD) group and a Methionine-Choline Deficient (MCD) diet group, which is a non-alcoholic steatohepatitis (NASH) induction diet, with 3 to 6 mice per group, and were allowed free access to the diets for 4 weeks. Simultaneously, vehicle (DMSO) or ST-2-001 at a concentration of 5 mg/kg was treated twice a week per animal via intraperitoneal injection (IP). After 4 weeks, liver tissues were obtained, and Masson's Trichrome staining showing the accumulation of collagen I (degree of fibrosis) and immunohistochemistry using antibodies against the given factors were performed. Representative images were obtained by randomly scanning the stained liver tissue sections using a digital slide scanner (MoticEasyScan, Motic, British Columbia, Canada). Additionally, tissue extracts were obtained from a portion of the liver tissues to perform Western blotting or qRT-PCR for the given factors, thereby confirming the mRNA and protein expression levels and phosphorylation degrees of signaling factors related to the induction of NASH-fibrosis symptoms and the regulation of T or NK cell activity. Meanwhile, in addition to the animal models, it was intended to confirm whether the expressions of TM4SF5, laminin γ2, and AFP correlate with each other at the hepatocyte level and are regulated by the TM4SF5-specific inhibitor isoxazole compound.

[3] = MCD diet, liver tissue extracts (FIG. 8c)

| Structure (SMILES) | growth or proliferation [1] | mRNA levels of inflammation-related cytokines/chemokines, liver fibrosis factors, and factors related to T cell or NK cell natural killer activation (SNU449-TM4SF5 cells) | NASH-fibrosis symptoms ([2]; MCD diet, 5 mg/kg IP twice a week, 4 weeks, tissue staining (FIG. 8a)) | CPT1 (carnitine palmitoyltransferase 1) [2, 3] | expressions and levels of fibrosis-related factors, factors related to lipogenesis and steatosis, and cytokines/chemokines related to inflammation [2, 3] | α-Sma, Afp, and Pd-ll expression ([2]; MCD diet, liver tissue extracts, Western blotting (FIG. 8b)) | mRNA levels for lipogenesis (Acc, Dgat2, Fasn) and activation of Kupffer cells (Trem2, Tim4, Clec4j) ([2]; MCD diet, liver tissues, qRT-PCR (FIG. 8d)) | effect on the liver tissue or the expression of the stained factors ([2]; NCD (normal chow diet), 5 mg/kg IP twice a week (FIG. 8a)) | expression of α-Sma, Afp, Pd-l1 ([2]; NCD, liver tissue extracts, Western blotting (FIG. 8b)) |
| --- | --- | --- | --- | --- | --- | --- | --- | --- | --- |
| COc1ccc(-c2cc(-c3ccc(N)cc3)no2)cc1 [ST-1-025, 4-(5-(4-methoxyphenyl)isoxazole-3-yl)aniline] | no significant difference |  |  |  |  |  |  |  |  |
| COc1ccc(-c2cc(-c3ccc(NC(C)=O)cc3)no2)cc1 [ST-2-001, N-(4-(5-(4-methoxyphenyl)isoxazole-3-yl)phenyl)acetamide] |  | inhibited | clearly inhibited | rather increased | suppressed | decreased | inhibited | had no effect | slightly decreased |
